According to PubChem BioAssay AID1259407 (Chemical Carcinogenesis Research Information System (CCRIS), 2018):
Active and inactive are the calls of the source. How the calls were made is not given here.

Test system: CCRIS mutagenicity, Ames/micronucleus/aberration tests
Experiment: CCRIS mutagenicity studies
[1] = Test System: AMES SALMONELLA TYPHIMURIUM, Strain/Indicator: TA98, Metabolic Activation: NONE, Method: STANDARD PLATE
[2] = Test System: AMES SALMONELLA TYPHIMURIUM, Strain/Indicator: TA98, Metabolic Activation: RAT, LIVER, S-9, AROCLOR 1254, Method: STANDARD PLATE
[3] = Test System: AMES SALMONELLA TYPHIMURIUM, Strain/Indicator: TA100, Metabolic Activation: NONE, Method: STANDARD PLATE
[4] = Test System: AMES SALMONELLA TYPHIMURIUM, Strain/Indicator: TA100, Metabolic Activation: RAT, LIVER, S-9, AROCLOR 1254, Method: STANDARD PLATE
[5] = Test System: AMES SALMONELLA TYPHIMURIUM, Strain/Indicator: TA1535, Metabolic Activation: NONE, Method: STANDARD PLATE
[6] = Test System: AMES SALMONELLA TYPHIMURIUM, Strain/Indicator: TA1535, Metabolic Activation: RAT, LIVER, S-9, AROCLOR 1254, Method: STANDARD PLATE
[7] = Test System: AMES SALMONELLA TYPHIMURIUM, Strain/Indicator: TA1537, Metabolic Activation: NONE, Method: STANDARD PLATE
[8] = Test System: AMES SALMONELLA TYPHIMURIUM, Strain/Indicator: TA1537, Metabolic Activation: RAT, LIVER, S-9, AROCLOR 1254, Method: STANDARD PLATE
[9] = Test System: AMES SALMONELLA TYPHIMURIUM, Strain/Indicator: TA1538, Metabolic Activation: NONE, Method: STANDARD PLATE
[10] = Test System: AMES SALMONELLA TYPHIMURIUM, Strain/Indicator: TA1538, Metabolic Activation: RAT, LIVER, S-9, AROCLOR 1254, Method: STANDARD PLATE
[11] = Test System: MOUSE LYMPHOMA, Strain/Indicator: L5178Y (TK+/TK-), Metabolic Activation: NONE, Method: SUSPENSION/PLATE
[12] = Test System: MOUSE LYMPHOMA, Strain/Indicator: L5178Y (TK+/TK-), Metabolic Activation: RAT, LIVER, S-9, AROCLOR 1254, Method: SUSPENSION/PLATE

CCN(CC)c1cc(NC(C)=O)c(N=Nc2c(Br)cc([N+](=O)[O-])cc2[N+](=O)[O-])cc1OC
mutagenic call [1]: active; positive | mutagenic call [2]: active; positive | mutagenic call (Test System: AMES SALMONELLA TYPHIMURIUM, Strain/Indicator: TA98DNP6, Metabolic Activation: NONE, Method: STANDARD PLATE): inactive; negative | mutagenic call (Test System: AMES SALMONELLA TYPHIMURIUM, Strain/Indicator: TA98DNP6, Metabolic Activation: RAT, LIVER, S-9, AROCLOR 1254, Method: STANDARD PLATE): active; positive | mutagenic call (Test System: AMES SALMONELLA TYPHIMURIUM, Strain/Indicator: TA98NR, Metabolic Activation: NONE, Method: STANDARD PLATE): inactive; negative | mutagenic call (Test System: AMES SALMONELLA TYPHIMURIUM, Strain/Indicator: TA98NR, Metabolic Activation: RAT, LIVER, S-9, AROCLOR 1254, Method: STANDARD PLATE): active; positive | mutagenic call [3]: active; positive | mutagenic call [4]: active; positive | mutagenic call [5]: inactive; negative | mutagenic call [6]: inactive; negative | mutagenic call [7]: active; positive | mutagenic call [8]: active; positive | mutagenic call [9]: active; positive | mutagenic call [10]: active; positive | mutagenic call (Test System: AMES SALMONELLA TYPHIMURIUM, Strain/Indicator: YG1021, Metabolic Activation: NONE, Method: STANDARD PLATE): active; positive | mutagenic call (Test System: AMES SALMONELLA TYPHIMURIUM, Strain/Indicator: YG1021, Metabolic Activation: RAT, LIVER, S-9, AROCLOR 1254, Method: STANDARD PLATE): active; positive | mutagenic call (Test System: AMES SALMONELLA TYPHIMURIUM, Strain/Indicator: YG1024, Metabolic Activation: NONE, Method: STANDARD PLATE): active; positive | mutagenic call (Test System: AMES SALMONELLA TYPHIMURIUM, Strain/Indicator: YG1024, Metabolic Activation: RAT, LIVER, S-9, AROCLOR 1254, Method: STANDARD PLATE): active; positive | mutagenic call (Test System: AMES SALMONELLA TYPHIMURIUM, Strain/Indicator: YG1041, Metabolic Activation: NONE, Method: STANDARD PLATE): active; positive | mutagenic call (Test System: AMES SALMONELLA TYPHIMURIUM, Strain/Indicator: YG1041, Metabolic Activation: RAT, LIVER, S-9, AROCLOR 1254, Method: STANDARD PLATE): active; positive

CN(CCO)CCO
mutagenic call (Test System: AMES SALMONELLA TYPHIMURIUM, Strain/Indicator: TA98, Metabolic Activation: HAMSTER, LIVER, S-9, AROCLOR 1254 (10%), Method: PREINCUBATION): inactive; negative | mutagenic call (Test System: AMES SALMONELLA TYPHIMURIUM, Strain/Indicator: TA98, Metabolic Activation: NONE, Method: PREINCUBATION): inactive; negative | mutagenic call [1]: inactive; negative | mutagenic call (Test System: AMES SALMONELLA TYPHIMURIUM, Strain/Indicator: TA98, Metabolic Activation: RAT, LIVER, S-9, AROCLOR 1254 (10%), Method: PREINCUBATION): inactive; negative | mutagenic call [2]: inactive; negative | mutagenic call (Test System: AMES SALMONELLA TYPHIMURIUM, Strain/Indicator: TA100, Metabolic Activation: HAMSTER, LIVER, S-9, AROCLOR 1254 (10%), Method: PREINCUBATION): inactive; negative | mutagenic call (Test System: AMES SALMONELLA TYPHIMURIUM, Strain/Indicator: TA100, Metabolic Activation: NONE, Method: PREINCUBATION): inactive; negative | mutagenic call [3]: inactive; negative | mutagenic call (Test System: AMES SALMONELLA TYPHIMURIUM, Strain/Indicator: TA100, Metabolic Activation: RAT, LIVER, S-9, AROCLOR 1254 (10%), Method: PREINCUBATION): inactive; negative | mutagenic call [4]: inactive; negative | mutagenic call (Test System: AMES SALMONELLA TYPHIMURIUM, Strain/Indicator: TA1535, Metabolic Activation: HAMSTER, LIVER, S-9, AROCLOR 1254 (10%), Method: PREINCUBATION): inactive; negative | mutagenic call (Test System: AMES SALMONELLA TYPHIMURIUM, Strain/Indicator: TA1535, Metabolic Activation: NONE, Method: PREINCUBATION): inactive; negative | mutagenic call [5]: inactive; negative | mutagenic call (Test System: AMES SALMONELLA TYPHIMURIUM, Strain/Indicator: TA1535, Metabolic Activation: RAT, LIVER, S-9, AROCLOR 1254 (10%), Method: PREINCUBATION): inactive; negative | mutagenic call [6]: inactive; negative | mutagenic call (Test System: AMES SALMONELLA TYPHIMURIUM, Strain/Indicator: TA1537, Metabolic Activation: HAMSTER, LIVER, S-9, AROCLOR 1254 (10%), Method: PREINCUBATION): inactive; negative | mutagenic call (Test System: AMES SALMONELLA TYPHIMURIUM, Strain/Indicator: TA1537, Metabolic Activation: NONE, Method: PREINCUBATION): inactive; negative | mutagenic call [7]: inactive; negative | mutagenic call (Test System: AMES SALMONELLA TYPHIMURIUM, Strain/Indicator: TA1537, Metabolic Activation: RAT, LIVER, S-9, AROCLOR 1254 (10%), Method: PREINCUBATION): inactive; negative | mutagenic call [8]: inactive; negative | mutagenic call [9]: inactive; negative | mutagenic call [10]: inactive; negative | mutagenic call (Test System: CHINESE HAMSTER OVARY, Strain/Indicator: CHO-K1-BH4, Metabolic Activation: NONE): inactive; negative | mutagenic call (Test System: CHINESE HAMSTER OVARY, Strain/Indicator: CHO-K1-BH4, Metabolic Activation: RAT, LIVER, S-9, AROCLOR 1254): inactive; negative

Cc1c(O)c(=O)ccn1C
mutagenic call [11]: active; positive. reevaluation of results: positive | mutagenic call [12]: active; positive. reevaluation of results: equivocal

Clc1ccc(-c2ccccc2)cc1
mutagenic call (End Point: In vitro micronucleus, Test System: Chinese hamster lung fibroblasts (V79 cells), Metabolic Activation: None): inactive; negative | mutagenic call (End Point: In vivo mutagenicity, Test System: Lung, Species: Rat, Strain/Sex: Big Blue/male, Route: Intraperitoneal): inactive; negative (2-fold increase in mutant frequency for 4-chlorobiphenyl and its metab | mutagenic call (Test System: Chinese hamster lung fibroblasts, Strain/Indicator: V79 (HPRT)/6-thioguanine, Metabolic Activation: None, Method: Standard plate): inactive; negative. study examines mutagenicity of metabolites synthesized in lab and iden

CS(=O)(=O)OCCCCOS(C)(=O)=O
mutagenic call [1]: inactive; negative | mutagenic call (Test System: AMES SALMONELLA TYPHIMURIUM, Strain/Indicator: TA98, Metabolic Activation: S-9, Method: STANDARD PLATE): inactive; negative | mutagenic call [3]: inactive; negative | mutagenic call (Test System: AMES SALMONELLA TYPHIMURIUM, Strain/Indicator: TA100, Metabolic Activation: S-9, Method: STANDARD PLATE): active; positive | mutagenic call (Test System: AMES SALMONELLA TYPHIMURIUM, Strain/Indicator: TA1537, Metabolic Activation: S-9, Method: STANDARD PLATE): inactive; negative | mutagenic call (Test System: E. COLI, Strain/Indicator: WP2 (HCR), Metabolic Activation: NONE, Method: STANDARD PLATE): inactive; negative | mutagenic call (Test System: E. COLI, Strain/Indicator: WP2 (HCR), Metabolic Activation: S-9, Method: STANDARD PLATE): active; positive | mutagenic call [11]: active; positive | mutagenic call [12]: active; positive

CC(=O)Nc1ccc2c3c(cccc13)-c1cc(O)ccc1-2
mutagenic call [1]: active; positive | mutagenic call [2]: active; positive
